Test results published in patent publication US12427157B2, “Methods for treatment of diseases involving acidic or hypoxic diseased tissues” (Cybrexa 1, Inc., priority 2018, dated 2025).
Residues, ends and D or L forms follow the SMILES beside them. *: point of attachment. X12 = C[C@H](COC(=O)N(C)Cc1ccc(-c2[nH]c3cc(F)cc4c3c2CCNC4=O)cc1)S*; X19 = CN(Cc1ccc(-c2[nH]c3cc(F)cc4c3c2CCNC4=O)cc1)C(=O)OCCS*; X2 = NC(=O)c1cccc2[nH]c(-c3ccc(COC(=O)OCCS*)cc3)nc12

Each molecule was assayed against PARP (Homo sapiens, UniProt P09874) (assay: Enzymatic Assay 2: HT Universal Chemiluminescent PARP Assay of cleaved compounds). Details: read-out: IC50 Enzymatic Assay 2; Examples cleaved per Example A (crude cleavage solution); R^8H starting materials as such.
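Also: PARP reaction with activated DNA run 1 h at room temperature, product detected via streptavidin-HRP and luminescence endpoint reading on a plate reader.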

Sequence of PARP (P09874 whole entry): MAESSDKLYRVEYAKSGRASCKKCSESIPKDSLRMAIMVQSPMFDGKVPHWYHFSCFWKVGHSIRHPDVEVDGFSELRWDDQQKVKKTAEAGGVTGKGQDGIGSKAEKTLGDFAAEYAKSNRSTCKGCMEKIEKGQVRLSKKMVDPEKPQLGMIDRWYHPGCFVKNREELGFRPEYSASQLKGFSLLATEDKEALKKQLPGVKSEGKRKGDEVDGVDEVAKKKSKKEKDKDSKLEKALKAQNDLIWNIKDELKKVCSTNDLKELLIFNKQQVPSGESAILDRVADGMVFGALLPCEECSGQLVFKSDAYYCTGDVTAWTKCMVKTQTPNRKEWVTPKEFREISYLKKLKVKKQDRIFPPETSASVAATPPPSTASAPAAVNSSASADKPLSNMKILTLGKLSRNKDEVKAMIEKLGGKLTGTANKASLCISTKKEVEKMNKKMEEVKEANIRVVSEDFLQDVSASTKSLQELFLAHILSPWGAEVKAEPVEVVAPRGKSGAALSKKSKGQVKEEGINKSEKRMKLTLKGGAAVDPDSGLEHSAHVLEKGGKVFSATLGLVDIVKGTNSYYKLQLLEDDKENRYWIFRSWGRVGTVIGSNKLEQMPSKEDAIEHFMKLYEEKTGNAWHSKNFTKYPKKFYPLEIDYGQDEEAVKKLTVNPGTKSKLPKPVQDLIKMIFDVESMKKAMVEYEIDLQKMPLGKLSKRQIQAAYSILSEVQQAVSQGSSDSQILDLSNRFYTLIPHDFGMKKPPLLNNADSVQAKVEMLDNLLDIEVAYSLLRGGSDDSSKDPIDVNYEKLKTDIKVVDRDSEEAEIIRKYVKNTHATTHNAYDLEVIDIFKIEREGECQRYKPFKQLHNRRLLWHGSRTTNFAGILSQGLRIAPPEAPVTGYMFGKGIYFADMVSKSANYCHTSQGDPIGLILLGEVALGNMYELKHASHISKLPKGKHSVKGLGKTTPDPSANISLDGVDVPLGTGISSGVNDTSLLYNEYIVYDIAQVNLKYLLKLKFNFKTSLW

Q: CC(C)C[C@H](NC(=O)[C@H](Cc1ccc(O)cc1)NC(=O)[C@H](C)NC(=O)[C@H](CCCNC(=N)N)NC(=O)[C@H](Cc1c[nH]c2ccccc12)NC(=O)[C@@H]1CCCN1C(=O)[C@H](CC(N)=O)NC(=O)[C@H](CCC(N)=O)NC(=O)[C@H](CC(=O)O)NC(=O)[C@H](CC(=O)O)NC(=O)[C@H](C)N)C(=O)N[C@@H](CC(=O)O)C(=O)N[C@@H](CC(C)C)C(=O)N[C@@H](CC(C)C)C(=O)N[C@@H](Cc1ccccc1)C(=O)N1CCC[C@H]1C(=O)N[C@H](C(=O)N[C@@H](CC(=O)O)C(=O)N[C@H](C(=O)N[C@@H](CC(C)C)C(=O)N[C@@H](CC(C)C)C(=O)N[C@@H](CC(C)C)C(=O)N[C@@H](CC(=O)O)C(=O)N[C@@H](CC(C)C)C(=O)N[C@@H](CC(C)C)C(=O)N[C@@H](Cc1c[nH]c2ccccc12)C(=O)N[C@@H](CSSCCOC(=O)OCc1ccc(-c2nc3c(C(N)=O)cccc3[nH]2)cc1)C(=O)NCC(=O)O)[C@@H](C)O)[C@@H](C)O [Example 1] was tested. Which IC50 did it give?
A: Its IC50 is 12.1 nM.

Q: Which IC50 does the source give for CC[C@H](C)[C@H](NC(=O)[C@@H]1CCCN1C(=O)[C@H](CC(N)=O)NC(=O)[C@H](CCC(N)=O)NC(=O)[C@H](CCC(=O)O)NC(=O)[C@H](C)N)C(=O)N[C@@H](Cc1ccc(O)cc1)C(=O)N[C@@H](Cc1c[nH]c2ccccc12)C(=O)N[C@@H](C)C(=O)N[C@@H](CCCNC(=N)N)C(=O)N[C@@H](Cc1ccc(O)cc1)C(=O)N[C@@H](C)C(=O)N[C@@H](CC(=O)O)C(=O)N[C@@H](Cc1c[nH]c2ccccc12)C(=O)N[C@@H](CC(C)C)C(=O)N[C@@H](Cc1ccccc1)C(=O)N[C@H](C(=O)N[C@H](C(=O)N1CCC[C@H]1C(=O)N[C@@H](CC(C)C)C(=O)N[C@@H](CC(C)C)C(=O)N[C@@H](CC(C)C)C(=O)N[C@@H](CC(C)C)C(=O)N[C@@H](CC(=O)O)C(=O)N[C@@H](CC(C)C)C(=O)N[C@@H](C)C(=O)N[C@@H](CC(C)C)C(=O)N[C@@H](CC(C)C)C(=O)N[C@H](C(=O)N[C@@H](CC(=O)O)C(=O)N[C@@H](C)C(=O)N[C@@H](CC(=O)O)C(=O)N[C@@H](CCC(=O)O)C(=O)N[C@@H](CSSCCOC(=O)OCc1ccc(-c2nc3c(C(N)=O)cccc3[nH]2)cc1)C(=O)NCC(=O)O)C(C)C)[C@@H](C)O)[C@@H](C)O [Example 2] (H-AEQNPIYWARYADWLFTTPLLLLDLALLVDADEC(X2)G-OH; N-terminus and C-terminus assumed) here?
A: Its IC50 is 9.52 nM.

Q: CC(C)C[C@H](NC(=O)[C@H](Cc1ccc(O)cc1)NC(=O)[C@H](C)NC(=O)[C@H](CCCNC(=N)N)NC(=O)[C@H](Cc1c[nH]c2ccccc12)NC(=O)[C@@H]1CCCN1C(=O)[C@H](CC(N)=O)NC(=O)[C@H](CCC(N)=O)NC(=O)[C@H](CC(=O)O)NC(=O)[C@H](CC(=O)O)NC(=O)[C@H](C)N)C(=O)N[C@@H](CC(=O)O)C(=O)N[C@@H](CC(C)C)C(=O)N[C@@H](CC(C)C)C(=O)N[C@@H](Cc1ccccc1)C(=O)N1CCC[C@H]1C(=O)N[C@H](C(=O)N[C@@H](CC(=O)O)C(=O)N[C@H](C(=O)N[C@@H](CC(C)C)C(=O)N[C@@H](CC(C)C)C(=O)N[C@@H](CC(C)C)C(=O)N[C@@H](CC(=O)O)C(=O)N[C@@H](CC(C)C)C(=O)N[C@@H](CC(C)C)C(=O)N[C@@H](Cc1c[nH]c2ccccc12)C(=O)N[C@@H](CC(=O)O)C(=O)N[C@@H](C)C(=O)N[C@@H](CC(=O)O)C(=O)N[C@@H](CCC(=O)O)C(=O)N[C@@H](CSSCCOC(=O)N1CCC[C@@H](c2ccc(-n3cc4cccc(C(N)=O)c4n3)cc2)C1)C(=O)NCC(=O)O)[C@@H](C)O)[C@@H](C)O [Example 10] was tested. Which IC50 did it give?
A: The IC50 was 64.9 nM.

Q: For CC(C)C[C@H](NC(=O)[C@H](Cc1ccc(O)cc1)NC(=O)[C@H](C)NC(=O)[C@H](CCCNC(=N)N)NC(=O)[C@H](Cc1c[nH]c2ccccc12)NC(=O)[C@@H]1CCCN1C(=O)[C@H](CC(N)=O)NC(=O)[C@H](CCC(N)=O)NC(=O)[C@H](CC(=O)O)NC(=O)[C@H](CC(=O)O)NC(=O)[C@H](C)N)C(=O)N[C@@H](CC(=O)O)C(=O)N[C@@H](CC(C)C)C(=O)N[C@@H](CC(C)C)C(=O)N[C@@H](Cc1ccccc1)C(=O)N1CCC[C@H]1C(=O)N[C@H](C(=O)N[C@@H](CC(=O)O)C(=O)N[C@H](C(=O)N[C@@H](CC(C)C)C(=O)N[C@@H](CC(C)C)C(=O)N[C@@H](CC(C)C)C(=O)N[C@@H](CC(=O)O)C(=O)N[C@@H](CC(C)C)C(=O)N[C@@H](CC(C)C)C(=O)N[C@@H](Cc1c[nH]c2ccccc12)C(=O)N[C@@H](CC(=O)O)C(=O)N[C@@H](C)C(=O)N[C@@H](CC(=O)O)C(=O)N[C@@H](CCC(=O)O)C(=O)N[C@@H](CSSCCOC(=O)N1CCC[C@]1(C)c1nc2c(C(N)=O)cccc2[nH]1)C(=O)NCC(=O)O)[C@@H](C)O)[C@@H](C)O [Example 11], which IC50 is on record?
A: The IC50 was 1.08 nM.

Q: CC[C@H](C)[C@H](NC(=O)[C@@H]1CCCN1C(=O)[C@H](CC(N)=O)NC(=O)[C@H](CCC(N)=O)NC(=O)[C@H](CCC(=O)O)NC(=O)[C@H](C)N)C(=O)N[C@@H](Cc1ccc(O)cc1)C(=O)N[C@@H](Cc1c[nH]c2ccccc12)C(=O)N[C@@H](C)C(=O)N[C@@H](CCCNC(=N)N)C(=O)N[C@@H](Cc1ccc(O)cc1)C(=O)N[C@@H](C)C(=O)N[C@@H](CC(=O)O)C(=O)N[C@@H](Cc1c[nH]c2ccccc12)C(=O)N[C@@H](CC(C)C)C(=O)N[C@@H](Cc1ccccc1)C(=O)N[C@H](C(=O)N[C@H](C(=O)N1CCC[C@H]1C(=O)N[C@@H](CC(C)C)C(=O)N[C@@H](CC(C)C)C(=O)N[C@@H](CC(C)C)C(=O)N[C@@H](CC(C)C)C(=O)N[C@@H](CC(=O)O)C(=O)N[C@@H](CC(C)C)C(=O)N[C@@H](C)C(=O)N[C@@H](CC(C)C)C(=O)N[C@@H](CC(C)C)C(=O)N[C@H](C(=O)N[C@@H](CC(=O)O)C(=O)N[C@@H](C)C(=O)N[C@@H](CC(=O)O)C(=O)N[C@@H](CCC(=O)O)C(=O)N[C@@H](CSSCCOC(=O)N(C)Cc1ccc(-c2[nH]c3cc(F)cc4c3c2CCNC4=O)cc1)C(=O)NCC(=O)O)C(C)C)[C@@H](C)O)[C@@H](C)O [Example 15] (H-AEQNPIYWARYADWLFTTPLLLLDLALLVDADEC(X19)G-OH; N-terminus and C-terminus assumed) was tested. Which IC50 did it give?
A: Its IC50 is 6.47 nM.

Q: CC(C)C[C@H](NC(=O)[C@H](Cc1ccc(O)cc1)NC(=O)[C@H](C)NC(=O)[C@H](CCCNC(=N)N)NC(=O)[C@H](Cc1c[nH]c2ccccc12)NC(=O)[C@@H]1CCCN1C(=O)[C@H](CC(N)=O)NC(=O)[C@H](CCC(N)=O)NC(=O)[C@H](CC(=O)O)NC(=O)[C@H](CC(=O)O)NC(=O)[C@H](C)N)C(=O)N[C@@H](CC(=O)O)C(=O)N[C@@H](CC(C)C)C(=O)N[C@@H](CC(C)C)C(=O)N[C@@H](Cc1ccccc1)C(=O)N1CCC[C@H]1C(=O)N[C@H](C(=O)N[C@@H](CC(=O)O)C(=O)N[C@H](C(=O)N[C@@H](CC(C)C)C(=O)N[C@@H](CC(C)C)C(=O)N[C@@H](CC(C)C)C(=O)N[C@@H](CC(=O)O)C(=O)N[C@@H](CC(C)C)C(=O)N[C@@H](CC(C)C)C(=O)N[C@@H](Cc1c[nH]c2ccccc12)C(=O)N[C@@H](CSS[C@H](C)COC(=O)N(C)Cc1ccc(-c2[nH]c3cc(F)cc4c3c2CCNC4=O)cc1)C(=O)NCC(=O)O)[C@@H](C)O)[C@@H](C)O [Example 18] was tested. Which IC50 did it give?
A: Its IC50 is 1.1 nM.

Q: For CC[C@H](C)[C@H](NC(=O)[C@@H]1CCCN1C(=O)[C@H](CC(N)=O)NC(=O)[C@H](CCC(N)=O)NC(=O)[C@H](CCC(=O)O)NC(=O)[C@H](C)N)C(=O)N[C@@H](Cc1ccc(O)cc1)C(=O)N[C@@H](Cc1c[nH]c2ccccc12)C(=O)N[C@@H](C)C(=O)N[C@@H](CCCNC(=N)N)C(=O)N[C@@H](Cc1ccc(O)cc1)C(=O)N[C@@H](C)C(=O)N[C@@H](CC(=O)O)C(=O)N[C@@H](Cc1c[nH]c2ccccc12)C(=O)N[C@@H](CC(C)C)C(=O)N[C@@H](Cc1ccccc1)C(=O)N[C@H](C(=O)N[C@H](C(=O)N1CCC[C@H]1C(=O)N[C@@H](CC(C)C)C(=O)N[C@@H](CC(C)C)C(=O)N[C@@H](CC(C)C)C(=O)N[C@@H](CC(C)C)C(=O)N[C@@H](CC(=O)O)C(=O)N[C@@H](CC(C)C)C(=O)N[C@@H](C)C(=O)N[C@@H](CC(C)C)C(=O)N[C@@H](CC(C)C)C(=O)N[C@H](C(=O)N[C@@H](CC(=O)O)C(=O)N[C@@H](C)C(=O)N[C@@H](CC(=O)O)C(=O)N[C@@H](CCC(=O)O)C(=O)N[C@@H](CSS[C@H](C)COC(=O)N(C)Cc1ccc(-c2[nH]c3cc(F)cc4c3c2CCNC4=O)cc1)C(=O)NCC(=O)O)C(C)C)[C@@H](C)O)[C@@H](C)O [Example 19] (H-AEQNPIYWARYADWLFTTPLLLLDLALLVDADEC(X12)G-OH; N-terminus and C-terminus assumed), which IC50 is on record?
A: Its IC50 is 2.2 nM.

Q: How did the IC50 turn out when CC(C)C[C@H](NC(=O)[C@H](Cc1ccc(O)cc1)NC(=O)[C@H](C)NC(=O)[C@H](CCCNC(=N)N)NC(=O)[C@H](Cc1c[nH]c2ccccc12)NC(=O)[C@@H]1CCCN1C(=O)[C@H](CC(N)=O)NC(=O)[C@H](CCC(N)=O)NC(=O)[C@H](CC(=O)O)NC(=O)[C@H](CC(=O)O)NC(=O)[C@H](C)N)C(=O)N[C@@H](CC(=O)O)C(=O)N[C@@H](CC(C)C)C(=O)N[C@@H](CC(C)C)C(=O)N[C@@H](Cc1ccccc1)C(=O)N1CCC[C@H]1C(=O)N[C@H](C(=O)N[C@@H](CC(=O)O)C(=O)N[C@H](C(=O)N[C@@H](CC(C)C)C(=O)N[C@@H](CC(C)C)C(=O)N[C@@H](CC(C)C)C(=O)N[C@@H](CC(=O)O)C(=O)N[C@@H](CC(C)C)C(=O)N[C@@H](CC(C)C)C(=O)N[C@@H](Cc1c[nH]c2ccccc12)C(=O)N[C@@H](CC(=O)O)C(=O)N[C@@H](C)C(=O)N[C@@H](CC(=O)O)C(=O)N[C@@H](CCC(=O)O)C(=O)N[C@@H](CSS[C@H](C)COC(=O)N(C)Cc1ccc(-c2[nH]c3cc(F)cc4c3c2CCNC4=O)cc1)C(=O)NCC(=O)O)[C@@H](C)O)[C@@H](C)O [Example 20] was run?
A: The IC50 was 1.7 nM.

Q: With CC(C)C[C@H](NC(=O)[C@H](Cc1ccc(O)cc1)NC(=O)[C@H](C)NC(=O)[C@H](CCCNC(=N)N)NC(=O)[C@H](Cc1c[nH]c2ccccc12)NC(=O)[C@@H]1CCCN1C(=O)[C@H](CC(N)=O)NC(=O)[C@H](CCC(N)=O)NC(=O)[C@H](CC(=O)O)NC(=O)[C@H](CC(=O)O)NC(=O)[C@H](C)N)C(=O)N[C@@H](CC(=O)O)C(=O)N[C@@H](CC(C)C)C(=O)N[C@@H](CC(C)C)C(=O)N[C@@H](Cc1ccccc1)C(=O)N1CCC[C@H]1C(=O)N[C@H](C(=O)N[C@@H](CC(=O)O)C(=O)N[C@H](C(=O)N[C@@H](CC(C)C)C(=O)N[C@@H](CC(C)C)C(=O)N[C@@H](CC(C)C)C(=O)N[C@@H](CC(=O)O)C(=O)N[C@@H](CC(C)C)C(=O)N[C@@H](CC(C)C)C(=O)N[C@@H](Cc1c[nH]c2ccccc12)C(=O)N[C@@H](CSS[C@@H](C)COC(=O)N(C)Cc1ccc(-c2[nH]c3cc(F)cc4c3c2CCNC4=O)cc1)C(=O)NCC(=O)O)[C@@H](C)O)[C@@H](C)O [Example 21] as the molecule, how does the IC50 read?
A: The IC50 was 2.2 nM.
